The source of these data is EP0285267A2, “Pyridine derivatives for treatment and prevention of liver damage, and their preparation” (YAMANOUCHI PHARMACEUTICAL CO. LTD., priority 1987, dated 1988).

Data set [1] concerns serum GPT elevation due to carbon tetrachloride liver damage. Put plainly: Carbon tetrachloride induced liver damage in rats, inhibition of serum GPT elevation. The format is in vivo, Male Sprague Dawley rats. The settings on record: given twice (1 hour before and 3 hours after carbon tetrachloride 1 ml/kg orally), blood 24 hours after, route not given. On the procedure:
The experimental liver damage was induced with carbon tetrachloride as the challenging agent. Carbon tetrachloride caused liver damage resembling that of alcohol-induced liver injury.
Male Sprague Dawley rats weighing around 160 grams were used. Carbon tetrachloride was dissolved in olive oil to obtain 20% solution, which was administed in doses of 5ml/kg orally (carbon tetrachloride: 1 ml/ kg). The test compounds were suspended in Cremophor buffer for intraperitoneal administration, and in 0.5% methyl cellulose solution for oral administration; and the test solutions were administered in doses of 5ml/kg respectively. The administration of the test compound was conducted twice, namely, 1 hour before and 3 hours after the administration of carbon tetrachloride. 24 hours after the administration of carbon tetrachloride, blood was collected via the great abdominal vein, and the level of serum GPT was measured. […] Thus, the compounds of this invention are usuful for agents for treatment and prevention of liver damage.
Other compounds, of formula I-B, were also found to have activity inhibiting the elevation of GPT due to carbon tetrachloride administration.

Data set [2] has as its system increase in GPT level, galactosamine-induced liver damage. Put plainly: D-galactosamine challenge in rats (test compound in 0.5 % methyl cellulose), inhibition of increase in serum GPT. The class given is in vivo, SD male rats. The following applies: 30 mg/kg oral in 0.5 % methyl cellulose, twice (1 hour before and 3 hours after D-galactosamine 425mg/kg i.p.), blood 24 hours after. As for the experimental part:
Experimental liver damage was induced with D-galactosamine as the challenging agent. Liver damage caused by D-galactosamine resembled that of acute hepatitis. The galactosamine hepatitis model is described in known prior art.
Animals used: SD male rats (7 week age, about 220 g body weight)
Administration method of the challenge compound: • D-galactosamine was dissolved in a physiological sodium chloride aqueous solution, and this solution was administered intraperitoneally to give galactosamine-induced liver damage. (Administered dose: 425mg/4mllkg) Administration method of the test compound: The test compound was suspended in 0.5 % methyl cellulose solution, and administered in doses of 30 mg/5 mi/kg, orally. The test compound was administered twice (1 hour before the D-galactosamine administration and 3 hours after its administration). 24 hours after the D-galactosamine administration, blood was obtained from the pentobarbital-anesthetized rats,and the level of serum-GPT was determined.

Data set [3] is described as follows: Absorbability / bioavailability (statement). The following applies: qualitative statement; oral suspension in 0.5 % methyl cellulose. The format is in vivo.
Data set [4] is described as follows: Solubility in water (statement). The class given is physicochemical. The following applies: qualitative statement.

For the molecule `COC(=O)c1c(C)nc(C)c(C(=O)OC)c1-c1ccc2c(c1OC)OCO2` [Example 2, dimethyl 4-(2-methoxy-3,4-methylenedioxy)phenyl-2,6-dimethylpyridine-3,5-dicarboxylate], in data set [1], the “Inhibiting effect (%) (30mg/kg administration)” value (“Inhibiting effect (%)” for short) amounted to 81.1%.
For `COC(=O)c1c(C)nc(C)c(C(=O)OC)c1-c1c([N+](=O)[O-])ccc2c1OCO2` [Example 36, Dimethyl 4-(2,3-methylenedioxy-6-nitro)phenyl-2,6-dimethylpyridine-3,5-dicarboxylate], in data set [1], the “Inhibiting effect (%)” value is given as 89.7%.
On to `COC(=O)c1c(-c2c(C(=O)OC)c(C)nc(C)c2C(=O)OC)cc(OC)c2c1OCO2` [Example 14], for which the “Inhibition rate (%) (30mg/kg, oral administration)” value (from here on “Inhibition rate (%)”) in data set [2] is recorded as 67.8%.
Regarding `COC(=O)c1c(C)nc(C)c(C(=O)OC)c1-c1cccc2c1OCO2` [Example U, dimethyl 4-(2,3-methylenedioxy)phenyl-2,6-dimethylpyridine-3,5-dicarboxylate], in data set [1], the “Inhibiting effect (%)” value is listed as 76.0%.
Consider “dimethyl 4-(3,4-methylenedioxy)phenyl-2,6-dimethyl-1,4-dihydropyridine-3,5-dicarboxylate [Example A]”, for which, in data set [1], the “Inhibiting effect (%)” value was determined as 68.6%.
Take `CCOc1c(N)c2c(c(OCC)c1OCC)C(C1c3c(cc4c(c3OC)OCO4)CCN1C)OC2=O` (stereo not shown) [Tritoqualine]: the “bioavailability (absorbability)” value in data set [3] is reported as “low bioavailability”. Moreover, in data set [4], the solubility in water entry is on record as “difficultly soluble in water”. In data set [2], the “Inhibition rate (%)” value is 0%.
As for `COC(=O)C1=C(C)NC(C)=C(C(=O)OC)C1c1cc2c(cc1Br)OCO2` [Example 22, Dimethyl 4-(3,4-methylenedioxy-6-bromo)phenyl-2,6-dimethyl-1,4-dihydropyridine-3,5-dicarboxylate], the “Inhibiting effect (%)” value in data set [1] stood at 82.3%.
As to `COC(=O)C1=C(C)NC(C)=C(C(=O)OC)C1c1cccc2c1OCO2` [Example P, dimethyl 4-(2,3-methylenedioxy)phenyl-2,6-dimethyl-1,4-dihydropyridine-3,5-dicarboxylate], in data set [1], the “Inhibiting effect (%)” value is 85.4%.
Regarding `COC(=O)C1=C(C)NC(C)=C(C(=O)OC)C1c1ccc2c(c1C(=O)OC)OCO2` [Example 7, dimethyl 4-(2-methoxycarbonyl-3,4-meth-lenedioxy)phenyl-2,6-dimethyl-1,4-dihydropyridine-3,5-dicarboxylate], the “Inhibiting effect (%)” value in data set [1] is listed as 74.9%. Further, the “Inhibition rate (%)” value in data set [2] was found to be 70.7%.
Consider `COC(=O)C1=C(C)NC(C)=C(C(=O)OC)C1c1ccccc1C(=O)OC` [Example C, dimethyl 4-(2-methoxycarbonyl)phenyl-2,6-dimethyl-1,4-dihydropyridine-3,5-dicarboxylate], for which, in data set [1], the “Inhibiting effect (%)” value was 91.6%.
